US9919019B2, “Use of essential oil of oregano or of rosewood, or constituents thereof, in the cosmetic treatment of keratoses” (L'Oreal, priority 2010, dated 2018)

Tested on: A431 cells
Assay: Annexin V/propidium iodide (AV/PI) apoptosis test in A431 cells
Format: cell-based, human
Settings: for death by targeted apoptosis of mutated cancer cells / cytotoxic efficacy compared with complex essential oils: 12 h; for death by targeted apoptosis of mutated cancer cells: A431 versus HEK001, concentrations equal to those present in the EO treatments (linalool 320 nL/mL, carvacrol 60 nL/mL, thymol 30 nL/mL); for cytotoxic efficacy compared with complex essential oils: equivalent dose; for apoptotic A431 cells: 12 h of treatment
Protocol: These three molecules were incubated for 12 h with non-mutated immortalized keratinocytes (HEK001) and mutated cancerous keratinocytes (A431). The percentage of cells in apoptosis was measured by the annexin V/propidium iodide test. The concentrations of the molecules used were equal to those present during the treatments with the essential oils. Example: the concentration of linalool used here represents the equivalent of 80% of linalool present in the essential oil of rosewood.
Thirty six hours before the treatment, the cells were distributed into a 96-well plate (5×10^5 cells/mL).
EO treatment solution: the essential oils were diluted to 1/10th a first time in 100% ethanol. Next, a second dilution was carried out in culture medium in order to obtain the desired concentrations.
The AV/PI test can be used to detect this event because of the affinity of the protein annexin V for phosphatidyl-serine. Propidium iodide, which targets DNA, can be used to distinguish early apoptotic cells from cells in late apoptosis and/or in necrosis.
After the desired treatment time, the medium was eliminated, the cells were harvested (by trypsinization), centrifuged and rinsed in 4 mL of PBS 1×. Tagging was carried out following the instructions of the manufacturer (Kit Vybrant, Molecular Probe). The cells were rapidly taken up in 100 μl of tagging buffer, to which 6 μl of annexin V and 3 μg/mL of propidium iodide per sample was added. The cells were then incubated for 30 min in the dark (at ambient temperature). Four hundred μL of tagging buffer was added before measuring the fluorescence of the annexin V (at 530 nm) and of the propidium iodide (at 610 nm).

Structure (SMILES)	death by targeted apoptosis of mutated cancer cells	cytotoxic efficacy compared with complex essential oils	apoptotic A431 cells (carvacrol 60 nL/mL) [%]	apoptotic A431 cells (thymol 30 nL/mL)
Cc1ccc(C(C)C)cc1O [carvacrol]	qualitatively conserved	lower than with complex essential oils	~25	
C=CC(C)(O)CCC=C(C)C (centres unmarked) [linalool]	qualitatively conserved	lower than with complex essential oils		
Cc1ccc(C(C)C)c(O)c1 [thymol]	qualitatively conserved	lower than with complex essential oils		approximately 15%
